Results: patent publication US10329542B2, “HBV RNAse H purification and enzyme inhibitors” (Saint Louis University, priority 2012, dated 2019)

Columns and labels:
[1] = system: HBV genotype A; settings: 10 μM; Tavis et al., 2013; cited from earlier work
[2] = system: HBV genotype D; experiment: HBV replication inhibition in Huh7 cells, Southern blot, genotype D; format: cell-based, Hepatitis B virus; settings: 10 μM
Description: Huh7 cells were maintained in Dulbecco's modified Eagle's medium with 10% fetal bovine serum at 37° C. in 5% CO2. Cells were seeded into 60 mm dishes and transfected at 70% confluency with 2.6 μg of plasmids using TransIT-LT1 (Mirus, Inc.). Test compounds were added the morning following transfection at 10 or 50 μM, and fresh medium containing the compounds was provided every 1-2 days. Four or five days post-transfection HBV cores were isolated by lysis of the cells in 10 mM Tris pH 7.5, 1 mM EDTA, 0.25% NP40, 50 mM NaCl, and 8% sucrose followed by sedimentation through a 30% sucrose cushion as described (Travis, et al., 1998). […] The nucleic acid samples were resolved by electrophoresis on 1.2% agarose gels and detected by Southern blotting with ^32P-labeled HBV DNA as a probe.
Finally, the inventors asked whether HBV RNAseH inhibitors could block HBV replication in culture. […] Replicate nucleic acid aliquots were mock treated or treated with DNAse-free E. coli RNAseH to destroy RNA:DNA heteroduplexes, and then HBV DNAs were detected by Southern blotting. […]
Inhibition of HBV replication by βTJ was measured as recently described (Tavis et al., 2013). […] The nucleic acids were resolved by electrophoresis on 1.2% agarose gels and HBV DNAs were detected by Southern blotting with ^32P-labeled double-stranded HBV DNA as a probe to detect both the plus- and minus-polarity HBV DNA strands. […]

[3] = molecular target: HIV-1 RNAseH (Human immunodeficiency virus type 1 group M subtype B, UniProt P04585); settings: read-out: IC50 against the HIV RNAseH; cited from earlier work
[4] = system: HIV; settings: cited from earlier work
[5] = system: Huh7 cells; experiment: CytoTox-Glo membrane integrity assay in Huh7 cells; format: cell-based, human; settings: four days
Description: Toxicity of βTJ in Huh7 cells was determined with 3-(4,5-dimethylthiazol-2-yl)-5-β-carboxymethoxyphenyl)-2-(4-sulfophenyl)-2H-tetrazolium (MTS) assays that measures mitochondrial dysfunction employing the Cell Titre 96 aqueous nonradioactive cell proliferation assay (Promega), and with the CytoTox-Glo assay (Promega) that reflects cellular integrity. Huh7 and HepG2 cells (1×10^4) were plated in 96-well tissue culture plates, medium containing βTJ at the indicated concentrations was added the next day, the medium was replaced with fresh medium containing βTJ after two days, and after four days the MTS or CytoTox-Glo assays were conducted according to the manufacturer's instructions.

Compound	Block of viral replication in Huh7 cells [1]	Inhibition of HBV replication, genotype D isolate [2]	IC50 [3]	Activity against HIV replication in cells [4]	CC50 [5]
NCc1ccc(-c2ccc(Cc3cc(=O)n(O)c4ncccc34)cc2)cc1 [Compound 12, napthyridinone]	~93%	Very few of the most slowly-migrating double-stranded nucleic acids accumulated			
CC(C)c1ccc(O)c(=O)c(O)c1 [Compound 46, beta-thujaplicinol]			200 to 300 nM	inactive	> 150000 nM
